One assay has as its system Rattus norvegicus. Briefly: Inhibition of PAF induced cutaneous vascular permeability in rat by intravenous administration. Type of assay: functional.
The target in assay [1] is Platelet-activating factor receptor (Rattus norvegicus, UniProt P46002). Briefly: Inhibition of platelet activating factor(PAF) by binding to PAF receptor.
Sequence of Platelet-activating factor receptor (P46002 whole entry): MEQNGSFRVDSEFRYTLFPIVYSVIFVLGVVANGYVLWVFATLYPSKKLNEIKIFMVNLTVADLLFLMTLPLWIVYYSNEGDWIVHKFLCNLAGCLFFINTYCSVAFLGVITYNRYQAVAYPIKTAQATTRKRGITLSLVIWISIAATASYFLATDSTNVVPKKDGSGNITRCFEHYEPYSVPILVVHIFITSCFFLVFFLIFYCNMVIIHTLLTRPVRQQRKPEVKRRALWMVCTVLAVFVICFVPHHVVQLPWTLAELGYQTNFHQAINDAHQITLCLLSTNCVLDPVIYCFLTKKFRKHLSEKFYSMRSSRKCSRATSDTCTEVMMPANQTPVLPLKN

In the case of `CN(C)C(=O)n1cc(C(=O)c2ccn3c2CS[C@@H]3c2cccnc2)c2ccc(-c3ccc(F)cc3)cc21`, the 50% effective dose (ED50) (as a rule, the midpoint of the dose-response relation) with Rattus norvegicus (Rattus norvegicus, iv, read-out: ED50) was 0.006 mg/kg. As to `CN(C)C(=O)n1cc(C(=O)c2ccn3c2C[S+]([O-])[C@@H]3c2cccnc2)c2ccc(-c3ccc(F)cc3)cc21` (stereo in doubt; cis), in assay [1], the Ki (commonly a measure of affinity in units of concentration, obtained from inhibition or displacement) was 0.0085 µM. In the assay with Rattus norvegicus, this compound registered a 50% effective dose (ED50) of 0.025 mg/kg. The corresponding values for `CN(C)C(=O)n1cc(C(=O)c2ccn3c2C[S+]([O-])[C@@H]3c2cccnc2)c2ccc(-c3ccc(F)cc3)cc21` (stereo in doubt; trans) are 0.068 µM and 0.1 mg/kg.

(Values after ChEMBL document CHEMBL1151509, “Synthesis of active metabolites of indole pyrrolothiazole paf antagonists” (Bioorg Med Chem Lett, 1995).)
